Data taken from publication PMC12707362, “Targeting Aurora Kinases as Essential Cell‐Cycle Regulators to Deliver Multi‐Stage Antimalarials Against Plasmodium Falciparum” (Angewandte Chemie (International Ed. in English), 2025).
Where a name gives a salt, the structure may show the parent alone. Read-outs that look alike come from different tables or passages of the source.

Columns and labels:
[1] = test system: P. falciparum drug-sensitive NF54 (PfNF54) asexual intra-erythrocytic parasites; assay: SYBR Green I proliferation assay, PfNF54 asexual blood stages; assay type: cell-based, Plasmodium falciparum; conditions: read-out: Pf NF54 ABS IC50
Source text: Figure 1 Activity profile of Aur class anticancer inhibitors across the life cycle of Plasmodium falciparum parasites. a) Activity (IC50) of inhibitors (grouped based on specificity against human Aur) against P.falciparum drug‐sensitive (PfNF54) asexual intra‐erythrocytic parasites as measured with SYBR Green I fluorescence as an indicator of viability and proliferation. […] ABS, asexual blood stages of the parasite; HsAur, human Aur.
P. falciparum drug sensitive NF54 (PfNF54) and drug-resistant Dd2 (PfDd2, chloroquine, pyrimethamine and mefloquine resistant) strains were cultured in vitro in human O^+/A^+ erythrocytes (5% hematocrit) in complete medium at 2–5% parasitemia, 37 °C, shaking at 60 rpm under hypoxic conditions (90% N2, 5% O2 and 5% CO2). […] Gametocytogenesis was followed with daily media changes (including glucose) and ABS parasites removed with 50 mM N-acetylglucosamine (day 1–4 for stage II/III; days 3–7 for stage IV/V).
All inhibitors were dissolved in dimethyl sulfoxide (DMSO). […] Ring-stage ABS parasites (1% parasitemia, 1% hematocrit) were treated with compounds for 96 h at 37 °C with chloroquine disulphate (0.5 μM) as positive drug control. […] Luciferase activity was determined using a non-lysing D-luciferin substrate (1 mM in 0.1 M citrate buffer, pH 5.5, 100 μL) and bioluminescence was detected with a GloMax® - Multi Detection System with Instinct® software.

[2] = test system: hepatocellular carcinoma (HepG2) cells; assay: Cytotoxicity counter-screening (MTT), HepG2; conditions: HepG2 CC50/PfNF54 IC50
Procedure: (§1) HepG2 and CHO cells were maintained at 37 °C, under a humidified atmosphere of 5% CO2, in DMEM high glucose media (Gibco) supplemented with 10% heat-inactivated FBS and 1% (v/v) Penicillin-Streptomycin antibiotics. […] The supernatant was discarded, and the cell pellet was resuspended in 1 mL DMEM media for cell counting by Trypan Blue. To determine the toxicity, cells were resuspended and seeded at a concentration of 1x10^4 cells/well in a 96-well plate and incubated for 24 h^[9,10]. Cells were treated in duplicate with a 10-fold serial dilution starting at 100 ug/mL of inhibitor in new media. After 48 h incubation, the viable cells were measured using the MTT tetrazolium reduction assay, where sterile 25 µL of a 5 mg/mL MTT was added to each well and incubated for 4 h before the […] formazan crystals were dissolved with 100 µL DMSO (Merck) per well. The absorbance, a measure of intracellular reduction of MTT, was measured at 540 nm (Multiskan GO). Emetine (50 µM) was included as a positive drug control, and the background was subtracted from all data before being normalised to the untreated^[9,10].

[3] = Cytotoxicity counter-screening (MTT), HepG2; conditions: human, HepG2 cells, HepG2 CC50, 48 h, MTT
Procedure: as §1

[4] = test system: late-stage (stage IV/V) gametocytes, P. falciparum 3D7elo1-pfs16-CBG99; assay: Luciferase reporter assay, late-stage gametocytes; assay type: cell-based; conditions: Plasmodium falciparum, 48 h, read-out: Pf Late stage gametocyte %inhibition @ 5 µM
Procedure: (§2) P. falciparum drug sensitive NF54 (PfNF54) and drug-resistant Dd2 (PfDd2, chloroquine, pyrimethamine and mefloquine resistant) strains were cultured in vitro in human O^+/A^+ erythrocytes (5% hematocrit) in complete medium at 2–5% parasitemia, 37 °C, shaking at 60 rpm under hypoxic conditions (90% N2, 5% O2 and 5% CO2). Immature and mature gametocytes were produced from P. falciparum 3D7elo1-pfs16-CBG99 (kind gift from Pietro Alano, ISS, Italy) ^[1] as described^[2,3] by simultaneously applying nutrient starvation and decreasing hematocrit to induce >97% ring-stage ABS parasites (0.5% parasitemia, 6% hematocrit). Gametocytogenesis was followed with daily media changes (including glucose) and ABS parasites removed with 50 mM N-acetylglucosamine (day 1–4 for stage II/III; days 3–7 for stage IV/V).
(§3) All inhibitors were dissolved in dimethyl sulfoxide (DMSO). Antiplasmodium activity of selected anti-cancer inhibitors was determined on P. falciparum NF54 and Dd2 strains, measuring SYBR Green I fluorescence (485 nm excitation, 538 nm emission) as an indicator of proliferation^[4]. Ring-stage ABS parasites (1% parasitemia, 1% hematocrit) were treated with compounds for 96 h at 37 °C with chloroquine disulphate (0.5 μM) as positive drug control. The activity of the inhibitors was tested against immature (>95% stage II/III) and late-stage (>90% stage IV/V) gametocytes using a luciferase reporter assay on 3D7elo1-pfs16-CBG99 ^[1]. […] Luciferase activity was determined using a non-lysing D-luciferin substrate (1 mM in 0.1 M citrate buffer, pH 5.5, 100 μL) and bioluminescence was detected with a GloMax® - Multi Detection System with Instinct® software.

[5] = test system: HepG2 and CHO cell lines versus PfNF54; assay: Selectivity of parasite versus mammalian cell lines; assay type: cell-based; conditions: mammalian cell line (CHO/HepG2) CC50 versus PfNF54 IC50; cell line not specified
Procedure: HepG2 and CHO cells were maintained at 37 °C, under a humidified atmosphere of 5% CO2, in DMEM high glucose media (Gibco) supplemented with 10% heat-inactivated FBS and 1% (v/v) Penicillin-Streptomycin antibiotics. […] The supernatant was discarded, and the cell pellet was resuspended in 1 mL DMEM media for cell counting by Trypan Blue. To determine the toxicity, cells were resuspended and seeded at a concentration of 1x10^4 cells/well in a 96-well plate and incubated for 24 h^[9,10]. Cells were treated in duplicate with a 10-fold serial dilution starting at 100 ug/mL of inhibitor in new media. After 48 h incubation, the viable cells were measured using the MTT tetrazolium reduction assay, where sterile 25 µL of a 5 mg/mL MTT was added to each well and incubated for 4 h before the water-soluble formazan crystals were dissolved with 100 µL DMSO (Merck) per well. The absorbance, a measure of intracellular reduction of MTT, was measured at 540 nm (Multiskan GO). Emetine (50 µM) was included as a positive drug control, and the background was subtracted from all data before being normalised to the untreated^[9,10].

[6] = Cytotoxicity counter-screening (MTT), CHO; conditions: Chinese hamster, CHO cells
Procedure: as §1

[7] = test system: Chinese Hamster Ovary (CHO) cells; assay: Cytotoxicity counter-screening (MTT), CHO; conditions: CHO CC50/PfNF54 IC50
Procedure: as §1

[8] = test system: immature (stage II/III) gametocytes, P. falciparum 3D7elo1-pfs16-CBG99; assay: Luciferase reporter assay, immature gametocytes; assay type: cell-based, Plasmodium falciparum; conditions: 48 h; for inhibition at 5 µM: Plasmodium falciparum, read-out: Pf Early stage gametocyte %inhibition @ 5 µM
Procedure: as §2, §3

[9] = test system: multidrug-resistant PfDd2 ABS parasites; assay: SYBR Green I proliferation assay, PfDd2 asexual blood stages; assay type: cell-based; conditions: Plasmodium falciparum, DD2, read-out: Pf Dd2 ABS IC50
Procedure: (§4) (B) Antiplasmodial activity of nine anticancer aurora kinase inhibitors (selected based on their PfNF54 ABS activity) against P. falciparum multidrug-resistant ABS parasites (PfDd2 and PfK1). (C) Kinobead competitive inhibition data.
as §2, §3

[10] = test system: P. berghei liver schizonts in HepG2-A16-CD81EGFP cells; assay: P. berghei (PbLuc) liver stage assay; assay type: cell-based; conditions: Plasmodium berghei; 48 h, PbLuc; read-out: Pb liver stage IC50
Source text: as §4
Plasmodium berghei (Pb) sporozoites were obtained by dissecting the salivary glands of infected Anopheles stephensi mosquitoes. These were provided by The SporoCore, at the University of Georgia, GA, USA (SporoCore.uga.edu). The parasites utilised a GFP-Lucama1-eef1 reporter line^[5]. These engineered parasites, termed Pb-Luc, were used to infect HepG2-A16-CD81EGFP cells. HepG2-A16-CD81EGFP cells stably transformed to express a GFP-CD81 fusion protein^[6] were cultured at 37 °C in 5% CO2 in DMEM (Invitrogen, Carlsbad, USA) supplemented with 10% FBS (Corning, NY, USA), 1X Pen/Strep/Glu (Thermo Fisher Scientific, USA). Compounds were prepared as 10 mM solutions in DMSO, and 10 nL of each (resulting in a final DMSO concentration of 0.1% per well) was transferred into assay plates using an ECHO 650 (Beckman). Concentrations ranged from 10 µM to 0.5 nM. Atovaquone (0.1 µM) served as a positive control, while 0.1% DMSO was used as a negative control. Liver stage (PbLuc) screening has been previously described^[7]. Human hepatic cells (3 × 10^3; HepG2-A16-CD81-EGFP) suspended in 5 µL of DMEM medium ([…], supplemented with 5% FBS, 5× Pen/Strep/Glu) were seeded in 1536-well plates (Greiner BioOne) using the MultiFlo FX (Agilent) 20 h before infection. PbLuc sporozoites, isolated from the salivary glands of A. stephensi mosquitoes, were filtered twice through a 20 µm nylon pore cell strainer. The sporozoites were resuspended in screening media, counted with a hemocytometer, and diluted to a final concentration of 200 sporozoites per µL. Each well received 1,000 sporozoites in 5 µL, dispensed via the GNF Dispenser II (GNF Systems). […] Luminescence was measured immediately with the Pherastar FSX reader (BMG Labtech). Luminescence values were normalized using the positive and negative controls. EC50 values were calculated with CDD Vault (Burlingame, CA). […]

[11] = Plasmodium falciparum, NF54, 96 h, ring-stage ABS, 96 h, SYBR Green I
[12] = ring-stage ABS, 96 h, SYBR Green I

Nc1nc(Nc2ccc(S(N)(=O)=O)cc2)nn1C(=O)c1c(F)cccc1F [JNJ, JNJ-7706621]
IC50 [1, 11]: 3.31 ± 0.813 µM

COc1cc(Nc2ncc3c(n2)-c2ccc(Cl)cc2C(c2c(F)cccc2OC)=NC3)ccc1C(=O)O [Alisertib, Alisertib (MLN8237)]
IC50 [1, 11]: ≥ 5 µM

O=C(O)c1ccc(Nc2ncc3c(n2)-c2ccc(Cl)cc2C(c2c(F)cccc2F)=NC3)cc1 [MLN8054]
IC50 [1, 11]: ≥ 5 µM

CCn1cc(-c2ccnc3[nH]c(-c4cccc(CN(C)C)c4)cc23)c(-c2ccc(NC(=O)N(C)C)cc2)n1 [GSK-916, GSK-1070916]
Selectivity index (SI) HepG2 [2]: 11.03 | CC50 at 48 h [3]: 13.1 µM | inhibition at 5 µM [4]: 31.5% | selectivity index (SI) towards the parasite [5]: < 10 | CC50 at 48 h [6]: 5.3 µM | Selectivity index (SI) CHO [7]: 4.47 | Pf Early stage gametocyte %inhibition @ 5 µM [8]: 67,1 ± 7,0% | inhibition at 5 µM [8]: ~70% | IC50 [1, 11]: 1.18 µM | IC50 [9]: 0.404 µM

CC(=O)NCC(=O)N1[C@@H]2CC[C@H]1c1ccc(Nc3ncc(C(F)(F)F)c(NC4CCC4)n3)cc12 [PF-35, PF-03814735]
IC50 [1, 12]: 2.12 ± 1.56 µM

O=C(O)[C@]1(Cc2cccc(Nc3nccs3)n2)CC[C@@H](Oc2cccc(Cl)c2F)CC1 [MK-5108]
IC50 ([1]; Plasmodium falciparum, NF54, 96 h): ≥ 5 µM

Cc1nn(C)cc1-c1nc2c(N3CCN(Cc4ccc(Cl)cc4)CC3)c(Cl)cnc2[nH]1 [CCT-736, CCT-241736]
IC50 [1, 11]: 3.24 µM

CN(C)c1ccc(-c2nc3ncc(Cl)c(N4CCN(CC(=O)Nc5nccs5)CC4)c3[nH]2)cc1 [CCT-202, CCT-129202]
IC50 [1, 12]: 2.41 µM

COc1cc2ncnc(Nc3ccc(NC(=O)c4ccccc4)cc3)c2cc1OC [Aki II, Aurora Kinase Inhibitor II]
IC50 [1, 12]: 2.15 µM

Cc1csc(-c2nnc(Nc3ccc(Oc4ncccc4-c4ccnc(N)n4)cc3)c3ccccc23)c1 [AMG 900]
IC50 [1, 11]: ≥ 5 µM

Cc1cc(CN2CCN(c3c(Br)cnc4nc(-c5ccc(N6CCN(C)CC6)cc5)[nH]c34)CC2)no1 [CCT-690, CCT-137690]
IC50 [1, 12]: 1.66 µM

Cc1cc(Nc2nn(-c3ccccc3)c(=O)c3ccccc23)n[nH]1 [PH-p, Phthalazinone pyrazole]
IC50 [1, 12]: 2.72 µM

CCc1cccc(CC)c1NC(=O)N1Cc2n[nH]c(NC(=O)c3ccc(N4CCN(C)CC4)cc3)c2C1 [PHA-32, PHA-680632]
IC50 [1, 11]: 3.13 µM

Cc1nc(N)sc1-c1ccnc(Nc2ccc(N3CCOCC3)cc2)n1 [CYC-116]
IC50 [1, 11]: 3.09 µM

O=C(Nc1cccc(Cl)c1)Nc1ncc(CCNc2ncnc3ccsc23)s1 [SNS-314, SNS-314 Mesylate]
IC50 [1, 11]: 1.44 µM

CO[C@@H](C(=O)N1Cc2n[nH]c(NC(=O)c3ccc(N4CCN(C)CC4)cc3)c2C1)c1ccccc1 [Danusertib]
Selectivity index (SI) HepG2 [2]: 24.8 | CC50 at 48 h [3]: 35.1 µM | inhibition at 5 µM [4]: 2.6% | CC50 at 48 h [6]: 33.2 µM | Selectivity index (SI) CHO [7]: 23.50 | inhibition at 5 µM [8]: 9.5% | IC50 [10]: 6.22 µM | IC50 [1, 11]: 1.41 µM | IC50 [9]: 1.3 µM
